According to the NIST ThermoML archive (doi:10.1021/je060271a):
Where “and” joins values, the source holds several entries; their conditions need not be identical. Equal entries are not always repeated.

Conditions: 283.15 K, Liquid, Vibrating tube method

CCCCCCCC(=O)OCC(COC(=O)CCCCCCC)(COC(=O)CCCCCCC)COC(=O)CCCCCCC [pentaerythritol tetraoctanoate]
Conditions	mass density
105.3 kPa	970.3 kg/m3
105.5 kPa	970.3 kg/m3 and 970.4 kg/m3
105.6 kPa	970.3 kg/m3
105.8 kPa	970.4 kg/m3
106.7 kPa	970.3 kg/m3
110 kPa	970.3 kg/m3
125.3 kPa	970.3 kg/m3
155.9 kPa	970.3 kg/m3
203.3 kPa	970.4 kg/m3
224.9 kPa	970.3 kg/m3
235.2 kPa	970.4 kg/m3
246.6 kPa	970.5 kg/m3
262.8 kPa	970.4 kg/m3
277.9 kPa	970.4 kg/m3
295.3 kPa	970.4 kg/m3
319.3 kPa	970.4 kg/m3
342 kPa	970.5 kg/m3
369 kPa	970.5 kg/m3
405 kPa	970.4 kg/m3
438.1 kPa	970.4 kg/m3
468.4 kPa	970.6 kg/m3
495.5 kPa	970.6 kg/m3
514.6 kPa	970.6 kg/m3
534.1 kPa	970.6 kg/m3
557.4 kPa	970.6 kg/m3
575.1 kPa	970.6 kg/m3
593.5 kPa	970.7 kg/m3
616.6 kPa	970.7 kg/m3
636.3 kPa	970.5 kg/m3
653.5 kPa	970.7 kg/m3
671.5 kPa	970.7 kg/m3
693.4 kPa	970.7 kg/m3
713.6 kPa	970.7 kg/m3
734.1 kPa	970.7 kg/m3
760.8 kPa	970.8 kg/m3
784.3 kPa	970.7 kg/m3
808.6 kPa	970.7 kg/m3
834.5 kPa	970.7 kg/m3
866.8 kPa	970.7 kg/m3
896 kPa	970.7 kg/m3
926.4 kPa	970.8 kg/m3
962 kPa	970.8 kg/m3
986 kPa	970.9 kg/m3
1010.4 kPa	970.9 kg/m3
1035.5 kPa	970.8 kg/m3
1066.4 kPa	970.9 kg/m3
1094 kPa	970.9 kg/m3
1122.1 kPa	970.9 kg/m3
1158.4 kPa	971 kg/m3
1189.3 kPa	971 kg/m3
1219.2 kPa	971 kg/m3
1247.3 kPa	971 kg/m3
1270.1 kPa	971 kg/m3
1293 kPa	971 kg/m3
1317.3 kPa	971 kg/m3
1349.3 kPa	971.1 kg/m3
1370.1 kPa	971 kg/m3
1401.5 kPa	971 kg/m3
1428.9 kPa	971 kg/m3
1457.4 kPa	971 kg/m3
1492.1 kPa	971.2 kg/m3
1522.7 kPa	971.1 kg/m3
1554.3 kPa	971.1 kg/m3
1587.1 kPa	971.2 kg/m3
1627.7 kPa	971.1 kg/m3
1662.8 kPa	971.2 kg/m3
1700.3 kPa	971.2 kg/m3
1747.1 kPa	971.3 kg/m3
1789.7 kPa	971.2 kg/m3
1830.4 kPa	971.3 kg/m3
1873.1 kPa	971.3 kg/m3
1917.2 kPa	971.4 kg/m3
1972.4 kPa	971.4 kg/m3
2020.6 kPa	971.4 kg/m3
2068.2 kPa	971.4 kg/m3
2110.9 kPa	971.5 kg/m3
2137.9 kPa	971.4 kg/m3
2158.6 kPa	971.5 kg/m3
2179.8 kPa	971.5 kg/m3
2205.6 kPa	971.5 kg/m3
2227.8 kPa	971.7 kg/m3
2250.5 kPa	971.5 kg/m3
2273.6 kPa	971.6 kg/m3
2301.4 kPa	971.6 kg/m3
2325.3 kPa	971.7 kg/m3
2348.9 kPa	971.5 kg/m3
2373 kPa	971.7 kg/m3
2403 kPa	971.7 kg/m3
2427.5 kPa	971.6 kg/m3
2457.8 kPa	971.7 kg/m3
2484 kPa	971.6 kg/m3
2510.7 kPa	971.8 kg/m3
2543.2 kPa	971.8 kg/m3
2571.1 kPa	971.7 kg/m3
2600.6 kPa	971.7 kg/m3
2629 kPa	971.8 kg/m3
2663.7 kPa	971.7 kg/m3
2693.4 kPa	971.8 kg/m3
2723.9 kPa	971.8 kg/m3
2760.8 kPa	971.9 kg/m3
2792.7 kPa	971.8 kg/m3
2824.8 kPa	971.9 kg/m3
2857.6 kPa	971.9 kg/m3
2897.6 kPa	971.9 kg/m3
2931.4 kPa	971.9 kg/m3
2966.3 kPa	972 kg/m3
3008.8 kPa	972 kg/m3
3045.9 kPa	972.1 kg/m3
3082.4 kPa	972.1 kg/m3
3127.9 kPa	971.9 kg/m3
3166.3 kPa	972 kg/m3
3205 kPa	972.1 kg/m3
3245 kPa	972 kg/m3
3285.9 kPa	972.1 kg/m3
3335.9 kPa	972.2 kg/m3
3377.6 kPa	972.1 kg/m3
3420.8 kPa	972.2 kg/m3
3473.3 kPa	972.3 kg/m3
3517.6 kPa	972.2 kg/m3
3564.3 kPa	972.3 kg/m3
3620 kPa	972.3 kg/m3
3667.5 kPa	972.3 kg/m3
3715.9 kPa	972.5 kg/m3
3763.5 kPa	972.5 kg/m3
3809.1 kPa	972.5 kg/m3
3824.1 kPa	972.4 kg/m3
3841.3 kPa	972.6 kg/m3
3855.7 kPa	972.5 kg/m3
3869.7 kPa	972.6 kg/m3
3883.9 kPa	972.5 kg/m3
3899.8 kPa	972.5 kg/m3
4015.4 kPa	972.5 kg/m3
4176.4 kPa	972.7 kg/m3
4313.4 kPa	972.7 kg/m3
4335.2 kPa	972.8 kg/m3
4353.7 kPa	972.9 kg/m3
4372.3 kPa	972.8 kg/m3
4391.7 kPa	972.7 kg/m3
4414.3 kPa	972.8 kg/m3
4433.6 kPa	972.8 kg/m3
4453.1 kPa	972.8 kg/m3
4475.4 kPa	972.8 kg/m3
4475.5 kPa	972.8 kg/m3
4478.4 kPa	972.9 kg/m3
4490.5 kPa	972.9 kg/m3
4492.3 kPa	972.8 kg/m3
4499.1 kPa	972.9 kg/m3
4499.9 kPa	972.9 kg/m3
4501.9 kPa	972.9 kg/m3
4502.4 kPa	972.9 kg/m3
4503 kPa	972.9 kg/m3 and 972.8 kg/m3
4503.5 kPa	972.8 kg/m3 and 972.9 kg/m3
4505.4 kPa	972.9 kg/m3
4508 kPa	973 kg/m3
4510.6 kPa	972.9 kg/m3
4512.1 kPa	972.8 kg/m3
4513.2 kPa	972.9 kg/m3
4519.1 kPa	972.9 kg/m3
4544.7 kPa	972.8 kg/m3
4566.3 kPa	972.8 kg/m3
4589 kPa	972.9 kg/m3
4613.1 kPa	972.9 kg/m3
4644 kPa	972.9 kg/m3
4671.2 kPa	973 kg/m3
4696.3 kPa	973 kg/m3
4730.1 kPa	973 kg/m3
4758.6 kPa	973 kg/m3
4787.7 kPa	973.1 kg/m3
4817.5 kPa	973.1 kg/m3
4847.6 kPa	972.9 kg/m3
4883.9 kPa	973 kg/m3
4914.4 kPa	973.1 kg/m3
4945.7 kPa	973.1 kg/m3
4982.7 kPa	973.1 kg/m3
5014 kPa	973.2 kg/m3
5046.2 kPa	973.1 kg/m3
5085.5 kPa	973.2 kg/m3
5118.2 kPa	973.2 kg/m3
5152.1 kPa	973.1 kg/m3
5187.4 kPa	973.3 kg/m3
5230.5 kPa	973.3 kg/m3
5268 kPa	973.4 kg/m3
5301.1 kPa	973.3 kg/m3
5328.4 kPa	973.3 kg/m3
5360.9 kPa	973.4 kg/m3
5388.3 kPa	973.3 kg/m3
5416.4 kPa	973.3 kg/m3
5445 kPa	973.4 kg/m3
5479.2 kPa	973.5 kg/m3
5507.9 kPa	973.4 kg/m3
5537.9 kPa	973.4 kg/m3
5567.3 kPa	973.5 kg/m3
5603.1 kPa	973.6 kg/m3
5664.1 kPa	973.4 kg/m3
5695.6 kPa	973.6 kg/m3
5733.6 kPa	973.7 kg/m3
5766.5 kPa	973.5 kg/m3
5806.4 kPa	973.6 kg/m3
5839.8 kPa	973.6 kg/m3
5864 kPa	973.6 kg/m3
5890.1 kPa	973.8 kg/m3
5912.2 kPa	973.6 kg/m3
5934.9 kPa	973.7 kg/m3
5958.4 kPa	973.7 kg/m3
5985.4 kPa	973.8 kg/m3
6009 kPa	973.7 kg/m3
6033.2 kPa	973.8 kg/m3
6058.3 kPa	973.9 kg/m3
6083.5 kPa	973.7 kg/m3
6114.7 kPa	973.7 kg/m3
6133.8 kPa	973.8 kg/m3
6146.1 kPa	973.7 kg/m3
6160.5 kPa	973.8 kg/m3
6172.9 kPa	973.9 kg/m3
6185.2 kPa	973.8 kg/m3
6197.6 kPa	973.8 kg/m3
6211.8 kPa	973.8 kg/m3
6223.9 kPa	973.8 kg/m3
6236.2 kPa	973.9 kg/m3
6249.3 kPa	973.9 kg/m3
6264.2 kPa	973.9 kg/m3
6277.1 kPa	974.1 kg/m3
6289.8 kPa	973.9 kg/m3
6302.4 kPa	973.9 kg/m3
6317.2 kPa	973.8 kg/m3
6330 kPa	973.9 kg/m3
6342.8 kPa	974 kg/m3
6358 kPa	974 kg/m3
6370.8 kPa	973.9 kg/m3
6383.6 kPa	973.9 kg/m3
6399 kPa	973.9 kg/m3
6412.5 kPa	974 kg/m3
6425.5 kPa	973.9 kg/m3
6438.7 kPa	974 kg/m3
6452 kPa	974 kg/m3
6467.9 kPa	974 kg/m3
6481 kPa	974 kg/m3
6494.5 kPa	974.2 kg/m3
6510.4 kPa	974 kg/m3
6523.9 kPa	974 kg/m3
6537.9 kPa	974.1 kg/m3
6551.3 kPa	973.9 kg/m3
6567.7 kPa	974.1 kg/m3
6581.8 kPa	974 kg/m3
6596.4 kPa	974.1 kg/m3
6610.8 kPa	974.1 kg/m3
6627.5 kPa	974.1 kg/m3
6641.5 kPa	974.1 kg/m3
6655.5 kPa	974 kg/m3
6669.7 kPa	974.1 kg/m3
6686.6 kPa	974.2 kg/m3
6700.8 kPa	974.1 kg/m3
6715.1 kPa	974.1 kg/m3
6732.2 kPa	974.1 kg/m3
6746.8 kPa	974.1 kg/m3
6761.4 kPa	974.2 kg/m3
6776.5 kPa	974.1 kg/m3
6793.7 kPa	974.1 kg/m3
6808.6 kPa	974.2 kg/m3
6823.5 kPa	974.2 kg/m3
6838.3 kPa	974 kg/m3
6856.4 kPa	974.1 kg/m3
6871.7 kPa	974.2 kg/m3
6886.9 kPa	974.2 kg/m3
6902.1 kPa	974.3 kg/m3
6920.2 kPa	974.3 kg/m3
6935.4 kPa	974.3 kg/m3
6950.9 kPa	974.3 kg/m3
6969.4 kPa	974.3 kg/m3
6985 kPa	974.3 kg/m3
7001 kPa	974.3 kg/m3
7016.8 kPa	974.3 kg/m3
7035.6 kPa	974.3 kg/m3
7051.3 kPa	974.3 kg/m3
7067 kPa	974.3 kg/m3
7083.6 kPa	974.3 kg/m3
7102.8 kPa	974.3 kg/m3
7119 kPa	974.3 kg/m3
7135.2 kPa	974.4 kg/m3
7154.7 kPa	974.4 kg/m3
7171.1 kPa	974.3 kg/m3
7187.5 kPa	974.3 kg/m3
7204.5 kPa	974.4 kg/m3
7221.2 kPa	974.5 kg/m3
7241.1 kPa	974.5 kg/m3
7257.8 kPa	974.4 kg/m3
7274.9 kPa	974.6 kg/m3
7295 kPa	974.5 kg/m3
7311.7 kPa	974.4 kg/m3
7329.3 kPa	974.4 kg/m3
7346.6 kPa	974.5 kg/m3
7367.1 kPa	974.6 kg/m3
7384.6 kPa	974.5 kg/m3
7402.3 kPa	974.6 kg/m3
7423.4 kPa	974.5 kg/m3
